For 31 compounds, Ki results are on record in patent US9469615B2, “Quinoxalines and AZA-quinoxalines as CRTH2 receptor modulators” (Merck Sharp & Dohme Corp., priority 2010, dated 2016).

Molecules are shown by their SMILES.

This test concerns the target T1, hCRTH2 (Homo sapiens, UniProt Q9Y5Y4).
T1 construct: expressed in transfected cells; host or cells: HEK (human embryonic kidney) cells expressing hCRTH2; membrane preparation
T1 sequence (Q9Y5Y4 1-395): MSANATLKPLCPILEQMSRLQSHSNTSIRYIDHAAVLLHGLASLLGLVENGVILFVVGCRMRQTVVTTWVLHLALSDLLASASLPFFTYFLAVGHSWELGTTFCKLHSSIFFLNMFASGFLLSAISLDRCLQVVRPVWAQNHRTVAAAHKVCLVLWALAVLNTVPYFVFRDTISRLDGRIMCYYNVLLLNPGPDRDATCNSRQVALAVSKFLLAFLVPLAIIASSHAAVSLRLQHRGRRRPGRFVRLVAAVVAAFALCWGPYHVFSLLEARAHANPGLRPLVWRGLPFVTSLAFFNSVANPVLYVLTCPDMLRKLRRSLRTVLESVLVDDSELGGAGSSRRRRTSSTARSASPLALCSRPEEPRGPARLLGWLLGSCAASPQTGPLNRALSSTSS
Briefly: Radioligand binding assay ([3H]PGD2 competition, HEK-hCRTH2 membranes). An outline of the steps: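 Competition against 3.0 nM [3H]PGD2 was run for 60 min at room temperature in pH 7.4 Tris-HCl buffer with EDTA, 2 mM MnCl2 and 1% DMSO, using 8-20 μg HEK-hCRTH2 membrane protein. 10 μM PGD2 set non-specific binding; filter-bound counts were read by scintillation.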

Setting [1] is: [3H]PGD2 binding, rated A-E (Table A).

As for `O=C(O)CCCNc1nc2cc(C(=O)N3CCC(c4ccc(F)cc4)CC3)ccc2nc1-c1ccccc1` [44J, 4-((7-(4-(4-fluorophenyl)piperidine-1-carbonyl)-3-phenylquinoxalin-2-yl)amino)butanoic acid], the Ki (as a rule, a dissociation constant, usually derived from enzyme kinetics or from competition with a known ligand) under setting [1] was in the range of 2.1 to 20 nM.

Consider `C[C@H](NC(=O)c1ccc2nc(-c3ccccc3)c(CCCCC(=O)O)nc2c1)c1ccc(F)cn1` [compound 474, (S)-5-(7-((1-(5-fluoropyridin-2-yl)ethyl)carbamoyl)-3-phenylquinoxalin-2-yl)pentanoic acid], for which the Ki ([3H]PGD2 competition, Table B) is 2.1 to 20 nM.

`N#Cc1ccc(CNC(=O)c2ccc3nc(-c4ccc(Cl)cc4)c(CCc4cccc(CC(=O)O)c4)nc3c2)cc1` [19F, 3-[2-[3-(4-chlorophenyl)-7-[[[(4-cyanophenyl)methyl]amino]carbonyl]-2-quinoxalinyl]ethyl] benzeneacetic acid] registered a Ki under setting [1] of 2.1 to 20 nM.

Under setting [1], `C[C@H](c1ccc(Cl)cc1)N(C)C(=O)c1ccc2nc(-c3ccccc3)c(CCCCC(=O)O)nc2c1` [compound 238, 7-[[[1(R)-(4-chlorophenyl)ethyl]methylamino]carbonyl]-3-phenyl-2-quinoxalinepentanoic acid] yielded a Ki of 2.1 to 20 nM.

Turning to `CC(CCCc1nc2cc(C(=O)N[C@@H]3CCc4cc(Cl)ccc43)ccc2nc1-c1ccc(F)cc1)C(=O)O` (stereo partly drawn) [compound 456, 5-(7-(((R)-5-chloro-2,3-dihydro-1H-inden-1-yl)carbamoyl)-3-(4-fluorophenyl)quinoxalin-2-yl)-2-methylpentanoic acid], the Ki ([3H]PGD2 competition, Table B) was 2.1 to 20 nM.

In the case of `O=C(O)CCCCc1nc2cc(C(=O)N3CCC4(CC3)Cc3ccccc3C(=O)N4)ccc2nc1-c1ccccc1` [compound 300, 5-(7-(1-oxo-2,4-dihydro-1H-spiro[isoquinoline-3,4′-piperidin]-1′-ylcarbonyl)-3-phenylquinoxalin-2-yl)pentanoic acid], where the note is “[3H]PGD2 competition, Table B”, the Ki lay within 2.1 to 20 nM.

The compound `O=C(O)CCCCc1nc2cc(C(=O)N[C@@H]3CCc4cc(Cl)ccc43)ccc2nc1-c1ccc(F)cc1` [compound 225, 7-[[(5-chloro-2,3-dihydro-1H-inden-1(R)-yl)amino]carbonyl]-3-(4-fluorophenyl)-2-quinoxalinepentanoic acid] displayed a Ki under setting [1] of 0.1 to 2 nM.

Where the note is “[3H]PGD2 competition, Table B”, `Cc1nnc(CNC(=O)c2ccc3nc(-c4ccc(F)cc4)c(CCCCC(=O)O)nc3c2)o1` [compound 525, 5-(3-(4-fluorophenyl)-7-(((5-methyl-1,3,4-oxadiazol-2-yl)methyl)carbamoyl)quinoxalin-2-yl) pentanoic acid] yielded a Ki of 20.1 to 200 nM.

Compound `O=C(O)CCCCc1nc2cc(C(=O)NCc3ccc(F)cc3)ccc2nc1-c1ccccc1` [15AD, 5-{7-[(4-fluorobenzyl)carbamoyl]-3-phenylquinoxalin-2-yl}pentanoic acid] yielded a Ki under setting [1] of 2.1 to 20 nM.

`O=C(O)Cc1cccc(CCCc2nc3cc(C(=O)N4CCN(c5ccccc5)CC4)ccc3nc2-c2ccc(Cl)cc2)c1` [compound 543, 2-(3-(3-(3-(4-chlorophenyl)-7-(4-phenylpiperazine-1-carbonyl)quinoxalin-2-yl)propyl)phenyl)acetic acid] returned a Ki ([3H]PGD2 competition, Table B) of 20.1 to 200 nM.

With `O=C(O)CCCCc1nc2cc(C(=O)N3CCC(c4ccccc4)CC3)ccc2nc1-c1ccc(Br)cc1` [26AB, 3-(4-bromophenyl)-7-[(4-phenyl-1-piperidinyl)carbonyl]-2-quinoxalinepentanoic acid], the Ki under setting [1] fell in the range of 0.1 to 2 nM.

Compound `COc1ccc([C@@H](C)NC(=O)c2ccc3nc(-c4ccc(Cl)cc4)c(CCC(C)CC(=O)O)nc3c2)cc1` (stereo partly drawn) [17o, 3-(4-chlorophenyl)-7-[[[1(R)-(4-methoxyphenyl)ethyl]amino]carbonyl]-beta-methyl-2-quinoxaline pentanoic acid] registered a Ki under setting [1] of 0.1 to 2 nM.

For the compound `O=C(O)CCCCc1nc2cc(C(=O)N3CCC4(CC3)COc3ccccc34)ccc2nc1-c1ccc(Cl)cc1` [compound 343, 5-(3--(4-chlorophenyl)-7-(2H-spiro[benzofuran-3,4′-piperidin]-1′-ylcarbonyl)quinoxalin-2-yl)pentanoic acid], under “[3H]PGD2 competition, Table B”, the Ki lay within 2.1 to 20 nM.

The compound `O=C(O)CCCCc1nc2cc(C(=O)N3CCc4ccccc4C3)ccc2nc1-c1ccccc1` [15AP, 5-[7-(3,4-dihydroisoquinolin-2(1H)-ylcarbonyl)-3-phenylquinoxalin-2-yl]pentanoic acid] displayed a Ki under setting [1] of 2.1 to 20 nM.

On to `O=C(O)CCCCc1nc2cc(C(=O)N3CCC4(CC3)NC(=O)Cc3ccccc34)ccc2nc1-c1ccc(Cl)cc1` [compound 567], for which the Ki ([3H]PGD2 competition, Table B) lay within 0.1 to 2 nM.

For the compound `O=C(O)CCCCc1nc2cc(C(=O)N3Cc4ccccc4C3)ccc2nc1-c1ccccc1` [compound 307, 5-(7-(isoindoline-2-carbonyl)-3-phenylquinoxalin-2-yl)pentanoic acid], the Ki ([3H]PGD2 competition, Table B) was 20.1 to 200 nM.

As to `O=C(O)CCCCc1nc2cc(C(=O)NC3CC(=O)Nc4ccccc43)ccc2nc1-c1ccc(F)cc1` (centres unmarked) [compound 352, 5-(3-(4-fluorophenyl)-7-((2-oxo-1,2,3,4-tetrahydroquinolin-4-yl)carbamoyl)quinoxalin-2-yl)pentanoic acid], the Ki ([3H]PGD2 competition, Table B) is 2.1 to 20 nM.

`Cc1ccccc1N1CCN(C(=O)c2ccc3nc(-c4ccc(F)cc4)c(CCCCC(=O)O)nc3c2)CC1` [compound 365, 5-(3-(4-fluorophenyl)-7-(4-(o-tolyl)piperazine-1-carbonyl)quinoxalin-2-yl)pentanoic acid] returned a Ki ([3H]PGD2 competition, Table B) of 2.1 to 20 nM.

Regarding `O=C(O)CCCCc1nc2cc(C(=O)N3CCN(c4cccc(C(F)(F)F)c4)CC3)ccc2nc1-c1ccccc1` [compound 309, 5-(3-phenyl-7-(4-(3-(trifluoromethyl)phenyl)piperazine-l-carbonyl)quinoxalin-2-yl)pentanoic acid], the Ki ([3H]PGD2 competition, Table B) was 2.1 to 20 nM.

For the compound `CC(CCCc1nc2cc(C(=O)N[C@@H](c3ccccc3)C(F)(F)F)ccc2nc1-c1ccc(C(F)(F)F)cc1)C(=O)O` (stereo partly drawn) [18H, alpha-methyl-3-[4-(trifluoromethyl)phenyl]-7-[[(2,2,2-trifluoro-1(S)-phenylethyl)amino]carbonyl]-2-quinoxalinepentanoic acid], the Ki under setting [1] is 2.1 to 20 nM.

`O=C(O)CCCCc1nc2cc(C(=O)N3CC[C@H](c4ccc(F)cc4)C3)ccc2nc1-c1ccc(Cl)cc1` [compound 559, (R)-5-(3-(4-chlorophenyl)-7-(3-(4-fluorophenyl)pyrrolidine-1-carbonyl)quinoxalin-2-yl)pentanoic acid]: under “[3H]PGD2 competition, Table B”, the Ki lay in the range of 0.1 to 2 nM.

For `C[C@@H]1CN(c2ccc(F)cc2)CCN1C(=O)c1ccc2nc(-c3ccccc3)c(CCCCC(=O)O)nc2c1` [compound 39, (R)-5-(7-(4-(4-fluorophenyl)-2-methylpiperazine-1-carbonyl)-3-phenylquinoxalin-2-yl)pentanoic acid], the Ki is 2.1 to 20 nM under setting [1] and 8 nM ([3H]PGD2 binding, values in text).

`O=C(O)CCCCc1nc2cc(C(=O)N[C@H]3CCc4cc(F)ccc43)ccc2nc1-c1ccc(F)cc1` [compound 224, 7-[[(5-fluoro-2,3-dihydro-1H-inden-1(5)-yl)amino]carbonyl]-3-(4-fluorophenyl)-2-quinoxalinepentanoic acid] gave a Ki under setting [1] of 0.1 to 2 nM.

In turn, `Cc1nc(CN2CCN(C(=O)c3ccc4nc(-c5ccc(Cl)cc5)c(CCCCC(=O)O)nc4c3)CC2)cs1` [compound 670, 5-(3-(4-chlorophenyl)-7-(4-((2-methylthiazol-4-yl)methyl)piperazine-1-carbonyl)quinoxalin-2-yl)pentanoic acid] returned a Ki ([3H]PGD2 competition, Table B) of 2.1 to 20 nM.

In turn, `O=C(O)CCCCc1nc2cc(C(=O)N3CCN(c4ccccc4C(F)(F)F)CC3)ccc2nc1-c1ccc(Cl)cc1` [compound 600, 5-(3-(4-chlorophenyl)-7-(4-(2-(trifluoromethyl)phenyl)piperazine-1-carbonyl)quinoxalin-2-yl)pentanoic acid] had a Ki ([3H]PGD2 competition, Table B) of 0.1 to 2 nM.

In turn, `O=C(O)CCCCc1nc2cc(C(=O)N3CCC(c4ccccc4)CC3)ccc2nc1-c1ccccc1Cl` [26L, 3-(2-chlorophenyl)-7-[(4-phenyl-1-piperidinyl)carbonyl]-2-quinoxalinepentanoic acid] showed an inhibition constant (Ki) under setting [1] of 2.1 to 20 nM.

The compound `CC(CCCc1nc2cc(C(=O)NCc3cccc(F)c3)ccc2nc1-c1ccc(F)cc1)C(=O)O` (stereo not drawn) [compound 203, 3-(4-fluorophenyl)-7-[[[(3-fluorophenyl)methyl]amino]carbonyl]-alpha-methyl-2-quinoxalinepentanoic acid] gave a Ki under setting [1] of 2.1 to 20 nM.

In turn, `O=C(O)CCCCc1nc2cc(C(=O)NC3Cc4ccccc4C3)ccc2nc1-c1ccc(F)cc1` [compound 103, 7-[[(2,3-dihydro-1H-inden-2-yl)amino]carbonyl]-3-(4-fluorophenyl)-2-quinoxalinepentanoic acid] came in with a Ki under setting [1] of 0.1 to 2 nM.

Regarding `O=C(O)CCCCc1nc2cc(C(=O)N3CCC3)ccc2nc1-c1ccc(F)cc1` [5S, 7-(1-azetidinylcarbonyl)-3-(4-fluorophenyl)-2-quinoxalinepentanoic acid], the inhibition constant Ki under setting [1] was 2.1 to 20 nM.

Take `Cc1cnc(C)c(N2CCN(C(=O)c3ccc4nc(-c5ccc(Cl)cc5)c(CCCCC(=O)O)nc4c3)CC2)n1` [compound 681, 5-(3-(4-chlorophenyl)-7-(4-(3,6-dimethylpyrazin-2-yl)piperazine-1-carbonyl)quinoxalin-2-yl)pentanoic acid]: the Ki ([3H]PGD2 competition, Table B) was 2.1 to 20 nM.

`O=C(O)CCCCc1nc2cc(C(=O)N3CC(c4ccccc4)C3)ccc2nc1-c1ccc(C(F)(F)F)cc1` [compound 154, 7-[(3-phenyl-1-azetidinyl)carbonyl]-3-[4-(trifluoromethyl)phenyl]-2-quinoxalinepentanoic acid] returned a Ki under setting [1] of 0.1 to 2 nM.
